Measured values as given in the supplement of paper PMC10307832.

Assays:
Experiment in all cases: relative viability (nuclei count vs DMSO), 5 days (fraction); higher = more cells survive
[1] = compound: CN(NC(=O)CC(=O)NN(C)C(=S)c1ccccc1)C(=S)c1ccccc1 [Elesclomol] + CC(C)C[C@H](NC(=O)[C@H](Cc1ccccc1)NC(=O)c1cnccn1)B(O)O [Bortezomib] (partner 0.002 µM)
Method in brief: (§1)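 Relative viability was taken as the ratio of nuclei in treated wells to nuclei in vehicle wells. Lung cancer cell lines in 1536-well plates received compounds by pin tool one day after seeding, either one drug alone or a fixed anchor-drug dose plus five library-drug doses (not always all listed) in √10 steps. Nuclei were counted on 4× images after 5 days of treatment, and values are medians of duplicate plates.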

[2] = compound: CN(NC(=O)CC(=O)NN(C)C(=S)c1ccccc1)C(=S)c1ccccc1 [Elesclomol] + CS(=O)(=O)N1CCN(Cc2cc3nc(-c4cccc5[nH]ncc45)nc(N4CCOCC4)c3s2)CC1 [Pictilisib] (partner 1 µM)
Method in brief: as §1

[3] = compound: CN(NC(=O)CC(=O)NN(C)C(=S)c1ccccc1)C(=S)c1ccccc1 [Elesclomol] + C[C@@H](Oc1cc(-c2cnn(C3CCNCC3)c2)cnc1N)c1c(Cl)ccc(F)c1Cl [Crizotinib] (partner 1 µM)
Method in brief: as §1

[4] = compound: CN(NC(=O)CC(=O)NN(C)C(=S)c1ccccc1)C(=S)c1ccccc1 [Elesclomol] + C[C@]1(O)C[C@@H](c2nc(-c3ccc4ccc(-c5ccccc5)nc4c3)c3c(N)nccn32)C1 [Linsitinib] (partner 1 µM)
Method in brief: as §1

[5] = compound: CN(NC(=O)CC(=O)NN(C)C(=S)c1ccccc1)C(=S)c1ccccc1 [Elesclomol] + Cc1nc(NC(=O)N2CCC[C@H]2C(N)=O)sc1-c1ccnc(C(C)(C)C(F)(F)F)c1 [Alpelisib] (partner 2 µM)
Method in brief: as §1

Cell Line	relative viability ([1]; first compound 0.003162 µM)	relative viability ([1]; first compound 0.01 µM)	relative viability ([1]; first compound 0.03162 µM)	relative viability ([1]; first compound 0.1 µM)	relative viability ([2]; first compound 0.003162 µM)	relative viability ([2]; first compound 0.01 µM)	relative viability ([2]; first compound 0.03162 µM)	relative viability ([2]; first compound 0.1 µM)	relative viability ([3]; first compound 0.003162 µM)	relative viability ([3]; first compound 0.01 µM)	relative viability ([3]; first compound 0.03162 µM)	relative viability ([3]; first compound 0.1 µM)	relative viability ([4]; first compound 0.003162 µM)	relative viability ([4]; first compound 0.01 µM)	relative viability ([4]; first compound 0.03162 µM)	relative viability ([4]; first compound 0.1 µM)	relative viability ([5]; first compound 0.003162 µM)	relative viability ([5]; first compound 0.01 µM)	relative viability ([5]; first compound 0.03162 µM)	relative viability ([5]; first compound 0.1 µM)
LCLC-97TM1	0.493	0.0794	0.0851	0.0274	0.173	0.118	0.115	0.0666	0.283	0.253	0.319	0.0642	0.175	0.16	0.141	0.116	0.216	0.211	0.167	0.104
LCLC-103H	1.12	0.865	1.07	0.838	0.628	0.471	0.736	0.457	0.948	0.937	0.993	1.02	1.11	1.02	1.01	1.07	1.17	0.883	1.02	0.955
LOU-NH91	0.537	0.525	0.423	0.463	0.447	0.511	0.45	0.424	0.735	0.706	0.616	0.57	0.925	0.856	0.703	0.542	0.717	0.643	0.513	0.498
LU99A	1.21	–	1.18	0.121	0.316	–	0.325	0.137	0.545	–	0.648	0.121	0.544	–	0.615	0.117	0.479	–	0.538	0.095
LXF-289	0.997	0.998	0.968	0.673	0.781	0.709	0.749	0.501	0.811	0.775	0.767	0.588	0.941	0.863	0.938	0.693	1.05	0.977	0.979	0.686
NCI-H23	1.07	–	0.603	0.119	0.536	–	0.366	0.147	0.56	–	0.49	0.116	0.572	–	0.504	0.143	0.662	–	0.491	0.122
NCI-H322M	1.17	–	1.25	1.15	0.478	–	0.519	0.382	0.911	–	0.98	0.552	0.977	–	0.916	0.606	0.933	–	0.645	0.173
NCI-H441	0.55	0.454	0.25	0.0495	0.424	0.364	0.183	0.0824	0.836	0.461	0.286	0.113	0.386	0.511	0.276	0.0877	0.701	0.624	0.233	0.0722
